Source: patent US20060069132A1, “Azolecarboxamide herbicides” (priority 2004, published 2006)

Key:
velvetleaf = assay: Test B pre-/postemergence herbicide test; format: in vivo, Abutilon theophrasti; details: for Velvetleaf plant response rating: postemergence
Procedure, shortened: (§1)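 Response was scored visually 13 to 15 days after treatment against untreated greenhouse controls, 0 meaning no effect and 100 complete control. Formulations (solvent mixture plus surfactant) went onto soil after planting, onto foliage of 1- to 4-leaf plants, and onto 2-leaf plants in a flooded paddy set including rice and barnyardgrass.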

morningglory = assay: Test B pre-/postemergence herbicide test; format: in vivo, Ipomoea coccinea; details: for Morningglory plant response rating: postemergence
Procedure, shortened: (§2)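 Herbicidal effect was judged by eye on a 0–100 scale after plants stood 13 to 15 days in the greenhouse following pre- or postemergence treatment with surfactant-containing formulations.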

wheat = assay: Test B postemergence herbicide test; format: in vivo, Triticum aestivum; set-up: key to Wheat plant response rating: 0 = no effect, 100 = complete control; details: postemergence
Procedure, shortened: (§3)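 Visual ratings, 0 (no effect) to 100 (complete control), made versus controls after 13–15 d greenhouse. Paddy plants treated at 2-leaf stage; postemergence plants at 1- to 4-leaf stage, 2–18 cm tall.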

large crabgrass = assay: Test B pre-/postemergence herbicide test; format: in vivo, Digitaria sanguinalis; details: for Crabgrass, Large plant response rating: postemergence
Procedure, shortened: as §1

wild oat = assay: Test B postemergence herbicide test; format: in vivo, Avena fatua; details: postemergence
Procedure, shortened: as §3

ducksalad [1] = assay: Test C flooded paddy test; format: in vivo, Heteranthera limosa
barnyardgrass [2] = assay: Test B pre-/postemergence herbicide test; format: in vivo, Echinochloa crus-galli; details: for Barnyardgrass plant response rating: postemergence, scale 0 (no effect) to 100 (complete control)
Procedure, shortened: as §2

pigweed = assay: Test B pre-/postemergence herbicide test; format: in vivo, Amaranthus retroflexus; details: for Pigweed plant response rating: postemergence
Procedure, shortened: as §1

corn = assay: Test B pre-/postemergence herbicide test; format: in vivo, Zea mays; details: for Corn plant response rating: postemergence
Procedure, shortened: as §1

[3] = tested on: small flower umbrella sedge; assay: Test B flooded paddy test; format: in vivo, Cyperus difformis; details: 1000 g ai/ha, scale 0 to 100 (0 no effect, 100 complete control)
Procedure, shortened: (§4)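 Treated at 2-leaf (paddy) or 1–4-leaf, 2–18 cm (postemergence); greenhouse 13–15 d; visual score vs control, 0 none to 100 complete control; dash = not tested.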

barnyardgrass [4] = assay: Test B flooded paddy test; format: in vivo, Echinochloa crus-galli; details: 1000 g ai/ha, scale 0 to 100 (0 no effect, 100 complete control)
Procedure, shortened: as §4

blackgrass = assay: Test B postemergence herbicide test; format: in vivo, Alopecurus myosuroides; details: postemergence, visual rating, scale 0 (no effect) to 100 (complete control)
Procedure, shortened: as §4

Surinam grass = assay: Test B pre-/postemergence herbicide test; format: in vivo, Urochloa decumbens; details: for Surinam Grass plant response rating: postemergence
Procedure, shortened: as §1

lambsquarters = assay: Test B pre-/postemergence herbicide test; format: in vivo, Chenopodium album; details: for Lambsquarters plant response rating: postemergence
Procedure, shortened: as §1

[5] = tested on: smallflower umbrella sedge; assay: Test C flooded paddy test; format: in vivo, Cyperus difformis
rice [6] = assay: Test B pre-/postemergence herbicide test; format: in vivo, Oryza sativa; details: 0 = no effect, 100 = complete control, preemergence
Procedure, shortened: as §1

cocklebur = assay: Test B pre-/postemergence herbicide test; format: in vivo, Xanthium strumarium; details: for Cocklebur plant response rating: postemergence, scale 0 (no effect) to 100 (complete control)
Procedure, shortened: as §2

ducksalad [7] = assay: Test B flooded paddy test; format: in vivo, Heteranthera limosa; details: 1000 g ai/ha, scale 0 to 100 (0 no effect, 100 complete control)
Procedure, shortened: as §4

rice [8] = assay: Test C flooded paddy test; format: in vivo, Oryza sativa
Procedure, shortened: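 Plants were grown to the 1- to 4-leaf stage (2–18 cm) and then treated postemergence, or grown to the 2-leaf stage for the flooded paddy test. They were held in a greenhouse for 12 to 14 days and then scored by eye against controls, where 0 is no effect and 100 is complete control.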

barnyardgrass [9] = assay: Test C flooded paddy test; format: in vivo, Echinochloa crus-galli
Procedure, shortened: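 Injury scored visually against controls on a 0 (no effect) to 100 (complete control) scale, 12 to 14 days after treatment in greenhouse. Flooded paddy plants treated at 2-leaf stage; postemergence plants at 1- to 4-leaf stage, 2 to 18 cm tall.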

rice [10] = assay: Test B flooded paddy test; format: in vivo, Oryza sativa; details: 1000 g ai/ha, scale 0 to 100 (0 no effect, 100 complete control)
Procedure, shortened: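 Postemergence plants were sprayed with formulated test chemicals at 2 to 18 cm height (1- to 4-leaf stage); paddy species were grown to the 2-leaf stage. After 13 to 15 days in a greenhouse, injury was rated visually against untreated controls on a 0–100 scale (0 = no effect, 100 = complete control).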

giant foxtail = assay: Test B pre-/postemergence herbicide test; format: in vivo, Setaria faberi; details: for Foxtail, Giant plant response rating: postemergence
Procedure, shortened: as §1

[11] = 125 g ai/ha, 0 = no effect, 100 = complete control, preemergence
[12] = 500 g ai/ha, visual rating, 0 = no effect, 100 = complete control, preemergence
[13] = 125 g ai/ha, visual rating, scale 0 (no effect) to 100 (complete control)
[14] = 500 g ai/ha, scale 0 to 100, 0 is no effect, 100 is complete control
[15] = 62 g ai/ha, scale 0 to 100 (0 no effect, 100 complete control)
[16] = 125 g ai/ha, scale 0 to 100 (0 no effect, 100 complete control)
[17] = 250 g ai/ha, scale of 0 to 100, 0 is no effect, 100 is complete control
[18] = 500 g ai/ha, visual rating after 12 to 14 days, scale 0 to 100 (0 no effect, 100 complete control)

## CCn1nc(C(C)(C)C)cc1C(=O)Nc1cccc(C(=O)N2CCCC2)n1 [Compound 245]
velvetleaf; [11]
  Velvetleaf plant response rating (0 to 100 scale): 40
velvetleaf; [12]
  Plant response rating, Velvetleaf: 90
velvetleaf; [13]
  Velvetleaf plant response rating: 70
velvetleaf; [14]
  Velvetleaf plant response rating: 80
morningglory; [11]
  Morningglory plant response rating (0 to 100 scale): 10
morningglory; [12]
  Plant response rating, Morningglory: 20
morningglory; [13]
  Morningglory plant response rating: 10
morningglory; [14]
  Morningglory plant response rating: 60
wheat; [13]
  Wheat plant response rating: 10
wheat; [14]
  Wheat plant response rating: 20
Large crabgrass; [11]
  Crabgrass, Large plant response rating (0 to 100 scale): 60
Large crabgrass; [12]
  Plant response rating, Crabgrass, Large: 100
Large crabgrass; [13]
  Crabgrass, Large plant response rating: 10
Large crabgrass; [14]
  Crabgrass, Large plant response rating: 50
Wild oat; [13]
  Oat, Wild plant response rating: 20
Wild oat; [14]
  Oat, Wild plant response rating: 30
Ducksalad [1]; [15]
  Ducksalad plant response rating: 60
Ducksalad [1]; [16]
  Ducksalad plant response rating: 75
Ducksalad [1]; [17]
  Ducksalad plant response rating: 75
Ducksalad [1]; [18]
  Plant response rating, Ducksalad: 75
Barnyardgrass [2]; [11]
  Barnyardgrass plant response rating (0 to 100 scale): 70
Barnyardgrass [2]; [12]
  Plant response rating, Barnyardgrass: 100
Barnyardgrass [2]; 125 g ai/ha, visual rating
  Barnyardgrass plant response rating: 40
Barnyardgrass [2]; 500 g ai/ha, visual rating
  Barnyardgrass plant response rating: 70
pigweed; [11]
  Pigweed plant response rating (0 to 100 scale): 100
pigweed; [12]
  Plant response rating, Pigweed: 100
pigweed; [13]
  Pigweed plant response rating: 60
pigweed; [14]
  Pigweed plant response rating: 80
corn; [11]
  Corn plant response rating (0 to 100 scale): 0
corn; [12]
  Plant response rating, Corn: 10
corn; [13]
  Corn plant response rating: 10
corn; [14]
  Corn plant response rating: 30
[3]
  Sedge, Umbrella plant response rating: 50
Barnyardgrass [4]
  Barnyardgrass plant response rating: 90
blackgrass; 125 g ai/ha
  Blackgrass plant response rating: 0
blackgrass; 500 g ai/ha
  Blackgrass plant response rating: 0
Surinam grass; [11]
  Surinam Grass plant response rating (0 to 100 scale): 40
Surinam grass; [12]
  Plant response rating, Surinam Grass: 80
Surinam grass; [13]
  Surinam Grass plant response rating: 30
Surinam grass; [14]
  Surinam Grass plant response rating: 60
lambsquarters; [11]
  Lambsquarters plant response rating (0 to 100 scale): 90
lambsquarters; [12]
  Plant response rating, Lambsquarters: 100
lambsquarters; [13]
  Lambsquarters plant response rating: 80
lambsquarters; [14]
  Lambsquarters plant response rating: 90
[5]; [15]
  Sedge, Umbrella plant response rating: 55
[5]; [16]
  Sedge, Umbrella plant response rating: 70
[5]; [17]
  Sedge, Umbrella plant response rating: 70
[5]; [18]
  Plant response rating, Sedge, Umbrella: 70
Rice [6]; 125 g ai/ha
  Rice plant response rating (0 to 100 scale): 20
Rice [6]; 500 g ai/ha, visual rating
  Plant response rating, Rice: 50
cocklebur; [11]
  Cocklebur plant response rating (0 to 100 scale): 0
cocklebur; [12]
  Plant response rating, Cocklebur: 0
cocklebur; 125 g ai/ha, visual rating
  Cocklebur plant response rating: 40
cocklebur; 500 g ai/ha, visual rating
  Cocklebur plant response rating: 80
Ducksalad [7]
  Ducksalad plant response rating: 80
Rice [8]; [15]
  Rice plant response rating: 25
Rice [8]; [16]
  Rice plant response rating: 65
Rice [8]; [17]
  Rice plant response rating: 70
Rice [8]; [18]
  Plant response rating, Rice: 70
Barnyardgrass [9]; [15]
  Barnyardgrass plant response rating: 0
Barnyardgrass [9]; [16]
  Barnyardgrass plant response rating: 35
Barnyardgrass [9]; [17]
  Barnyardgrass plant response rating: 45
Barnyardgrass [9]; [18]
  Plant response rating, Barnyardgrass: 70
Rice [10]
  Rice plant response rating: 80
Giant foxtail; [11]
  Foxtail, Giant plant response rating (0 to 100 scale): 60
Giant foxtail; [12]
  Plant response rating, Foxtail, Giant: 90
Giant foxtail; [13]
  Foxtail, Giant plant response rating: 30
Giant foxtail; [14]
  Foxtail, Giant plant response rating: 60
